From patent US10118916B2, “Modulators of cystic fibrosis transmembrane conductance regulator protein” (AbbVie S.à.r.l., priority 2016, dated 2018) come the findings set out here.

The assay has as its target T1, F508delCFTR (Homo sapiens, UniProt P13569, DEL508-508).
T1 construct: expressed in transfected cells; host or cells: CFBE41o- (human lung derived epithelial cell line), doxycycline-inducible
As to the kind of experiment: Cell Surface Expression-Horse Radish Peroxidase (CSE-HRP) assay. In kind it is cell-based. The conditions noted are these: CFBE41o-F508delCFTR-HRP cells; for EC50: F508delCFTR cell surface expression, luminescence, 18-24 hours at 33° C., highest concentration 20 μM; for Maximum % activity: maximum at any tested concentration, normalized to on-plate positive control (3 μM). A digest of the protocol: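 CFBE41o- cells expressing doxycycline-induced (0.5 μg/mL, 72 h at 37 °C) F508delCFTR with HRP in the fourth extracellular loop; compounds 8 points, 3-fold from 20 μM, 18-24 h at 33 °C. Surface HRP measured by luminol luminescence, normalised to DMSO and 3 μM reference corrector; EC50 from variable-slope sigmoidal fit of triplicate plates.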

T1 sequence (P13569 with tags, fused parts or gaps DEL508-508): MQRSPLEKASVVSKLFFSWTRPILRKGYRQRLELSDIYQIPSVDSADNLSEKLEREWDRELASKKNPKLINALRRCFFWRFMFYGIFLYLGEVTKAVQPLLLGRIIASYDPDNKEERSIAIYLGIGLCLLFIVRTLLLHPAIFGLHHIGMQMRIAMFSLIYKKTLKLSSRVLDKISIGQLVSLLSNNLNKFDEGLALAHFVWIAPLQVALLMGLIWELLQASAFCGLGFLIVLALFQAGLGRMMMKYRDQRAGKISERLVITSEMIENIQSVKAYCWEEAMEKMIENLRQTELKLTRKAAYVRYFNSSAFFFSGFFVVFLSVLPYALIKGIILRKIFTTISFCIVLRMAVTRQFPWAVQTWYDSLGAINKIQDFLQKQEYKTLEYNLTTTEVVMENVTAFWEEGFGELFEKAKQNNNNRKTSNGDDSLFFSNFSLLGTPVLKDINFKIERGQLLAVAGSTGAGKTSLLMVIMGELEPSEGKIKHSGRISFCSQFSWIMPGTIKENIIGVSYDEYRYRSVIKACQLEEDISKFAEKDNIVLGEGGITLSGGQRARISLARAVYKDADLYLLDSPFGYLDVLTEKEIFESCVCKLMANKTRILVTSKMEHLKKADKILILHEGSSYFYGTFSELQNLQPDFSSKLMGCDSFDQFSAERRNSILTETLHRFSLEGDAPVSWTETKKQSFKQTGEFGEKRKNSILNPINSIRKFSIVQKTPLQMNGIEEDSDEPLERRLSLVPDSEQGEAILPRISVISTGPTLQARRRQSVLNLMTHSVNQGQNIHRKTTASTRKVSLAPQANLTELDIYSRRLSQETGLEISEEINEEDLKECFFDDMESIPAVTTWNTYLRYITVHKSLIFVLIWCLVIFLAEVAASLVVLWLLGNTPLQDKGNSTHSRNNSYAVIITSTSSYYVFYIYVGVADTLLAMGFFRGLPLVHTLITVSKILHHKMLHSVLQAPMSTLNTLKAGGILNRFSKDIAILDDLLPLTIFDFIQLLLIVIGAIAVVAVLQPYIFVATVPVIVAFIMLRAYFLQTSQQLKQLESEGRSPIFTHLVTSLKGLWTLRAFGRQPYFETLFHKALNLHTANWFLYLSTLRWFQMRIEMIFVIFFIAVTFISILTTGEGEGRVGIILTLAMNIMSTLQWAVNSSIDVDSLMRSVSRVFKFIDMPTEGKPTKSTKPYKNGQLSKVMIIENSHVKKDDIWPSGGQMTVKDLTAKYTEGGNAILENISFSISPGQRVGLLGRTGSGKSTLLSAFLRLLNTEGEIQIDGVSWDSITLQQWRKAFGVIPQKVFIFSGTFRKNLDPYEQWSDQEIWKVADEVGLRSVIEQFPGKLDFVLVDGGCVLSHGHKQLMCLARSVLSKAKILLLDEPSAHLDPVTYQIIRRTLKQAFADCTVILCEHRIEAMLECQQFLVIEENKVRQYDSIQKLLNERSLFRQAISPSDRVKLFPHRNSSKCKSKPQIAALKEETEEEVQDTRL

`COc1ccc2c(c1)O[C@@H](c1ccc(C(=O)O)cc1)C[C@H]2NC(=O)C1(c2cccc(OC(F)(F)F)c2)CCC1` [Example 83, 4-[(2R,4R)-7-methoxy-4-({1-[3-(trifluoromethoxy)phenyl]cyclobutane-1-carbonyl}amino)-3,4-dihydro-2H-1-benzopyran-2-yl]benzoic acid] came in with an EC50 of 3170 nM and a Maximum % activity of 51.0%.

In turn, `COc1ccc2c(c1)O[C@@H](c1ccc(C(=O)O)cc1)C[C@H]2NC(=O)C1(c2ccc(F)cc2)CC1` [Example 84, 4-[(2R,4R)-4-{[1-(4-fluorophenyl)cyclopropane-1-carbonyl]amino}-7-methoxy-3,4-dihydro-2H-1-benzopyran-2-yl]benzoic acid] gave a concentration for a half-maximal effect (EC50) of 560 nM and a Maximum % activity of 56.2%.

Compound `COc1ccc2c(c1)O[C@@H](c1ccc(C(=O)O)cc1)C[C@H]2NC(=O)C1(c2cccc(F)c2)CC1` [Example 85, 4-[(2R,4R)-4-{[1-(3-fluorophenyl)cyclopropane-1-carbonyl]amino}-7-methoxy-3,4-dihydro-2H-1-benzopyran-2-yl]benzoic acid] had an EC50 of 720 nM and a Maximum % activity of 50.4%.

Take `COc1ccc2c(c1)O[C@@H](c1ccc(C(=O)O)cc1)C[C@H]2NC(=O)C1(c2ccc(C)c(OC)c2)CC1` [Example 86, 4-[(2R,4R)-7-methoxy-4-{[1-(3-methoxy-4-methylphenyl)cyclopropane-1-carbonyl]amino}-3,4-dihydro-2H-1-benzopyran-2-yl]benzoic acid]: the EC50 turned out to be 570 nM and the Maximum % activity stood at 57.9%.

For `COc1ccc2c(c1)O[C@@H](c1ccc(C(=O)O)cc1)C[C@H]2NC(=O)C1(c2cccc(C#N)c2)CC1` [Example 87, 4-[(2R,4R)-4-{[1-(3-cyanophenyl)cyclopropane-1-carbonyl]amino}-7-methoxy-3,4-dihydro-2H-1-benzopyran-2-yl]benzoic acid], the EC50 was 1830 nM and the Maximum % activity was determined as 46.0%.

With `COc1ccc2c(c1)O[C@@H](c1ccc(C(=O)O)cc1)C[C@H]2NC(=O)C1(c2cccc(Br)c2)CC1` [Example 88, 4-[(2R,4R)-4-{[1-(3-bromophenyl)cyclopropane-1-carbonyl]amino}-7-methoxy-3,4-dihydro-2H-1-benzopyran-2-yl]benzoic acid], the half-maximal effective concentration (EC50) was 640 nM and the Maximum % activity was 44.0%.

`COc1ccc2c(c1)O[C@@H](c1ccc(C(=O)O)cc1)C[C@H]2NC(=O)C1(c2ccccc2Br)CC1` [Example 89, 4-[(2R,4R)-4-{[1-(2-bromophenyl)cyclopropane-1-carbonyl]amino}-7-methoxy-3,4-dihydro-2H-1-benzopyran-2-yl]benzoic acid] displayed an EC50 of 750 nM and a Maximum % activity of 42.0%.

`COc1ccc2c(c1)O[C@@H](c1ccc(C(=O)O)cc1)C[C@H]2NC(=O)C1(c2cccc(F)c2)CCCC1` [Example 90, 4-[(2R,4R)-4-{[1-(3-fluorophenyl)cyclopentane-1-carbonyl]amino}-7-methoxy-3,4-dihydro-2H-1-benzopyran-2-yl]benzoic acid] returned an EC50 greater than 20000 nM and a Maximum % activity of 8.1%.

Compound `COc1ccc2c(c1)O[C@@H](c1ccc(C(=O)O)cc1)C[C@H]2NC(=O)C1(c2ccccc2F)CCCC1` [Example 91, 4-[(2R,4R)-4-{[1-(2-fluorophenyl)cyclopentane-1-carbonyl]amino}-7-methoxy-3,4-dihydro-2H-1-benzopyran-2-yl]benzoic acid] returned an EC50 greater than 20000 nM and a Maximum % activity of 5.0%.

`COc1ccc2c(c1)O[C@@H](c1ccc(C(=O)O)cc1)C[C@H]2NC(=O)C1(c2ccc(C#N)cc2)CC1` [Example 92, 4-[(2R,4R)-4-{[1-(4-cyanophenyl)cyclopropane-1-carbonyl]amino}-7-methoxy-3,4-dihydro-2H-1-benzopyran-2-yl]benzoic acid] showed an EC50 of 350 nM and a Maximum % activity of 62.0%.

With `COc1ccc2c(c1)O[C@@H](c1ccc(C(=O)O)cc1)C[C@H]2NC(=O)C1(c2ccc(F)cc2)CCCC1` [Example 93, 4-[(2R,4R)-4-{[1-(4-fluorophenyl)cyclopentane-1-carbonyl]amino}-7-methoxy-3,4-dihydro-2H-1-benzopyran-2-yl]benzoic acid], the EC50 is greater than 20000 nM and the Maximum % activity worked out at 5.7%.

For the compound `COc1ccc2c(c1)O[C@@H](c1ccc(C(=O)O)cc1)C[C@H]2NC(=O)C1(c2ccccc2Br)CCC1` [Example 94, 4-[(2R,4R)-4-{[1-(2-bromophenyl)cyclobutane-1-carbonyl]amino}-7-methoxy-3,4-dihydro-2H-1-benzopyran-2-yl]benzoic acid], the EC50 was determined as 2630 nM and the Maximum % activity came out at 49.0%.

With `COc1ccc2c(c1)O[C@@H](c1ccc(C(=O)O)cc1)C[C@H]2NC(=O)C1(c2ccc(Cl)c(Cl)c2)CCC1` [Example 95, 4-[(2R,4R)-4-{[1-(3,4-dichlorophenyl)cyclobutane-1-carbonyl]amino}-7-methoxy-3,4-dihydro-2H-1-benzopyran-2-yl]benzoic acid], a half-maximal response (EC50) required 1330 nM and the Maximum % activity is 76.0%.

Compound `COc1ccc2c(c1)O[C@@H](c1ccc(C(=O)O)cc1)C[C@H]2NC(=O)C1(c2ccccc2Cl)CCC1` [Example 96, 4-[(2R,4R)-4-{[1-(2-chlorophenyl)cyclobutane-1-carbonyl]amino}-7-methoxy-3,4-dihydro-2H-1-benzopyran-2-yl]benzoic acid] gave a concentration for a half-maximal effect (EC50) of 3010 nM and a Maximum % activity of 33.0%.

In turn, `COc1ccc2c(c1)O[C@@H](c1ccc(C(=O)O)cc1)C[C@H]2NC(=O)C1(c2ccccc2)CCCC1` [Example 97, 4-{(2R,4R)-7-methoxy-4-[(1-phenylcyclopentane-1-carbonyl)amino]-3,4-dihydro-2H-1-benzopyran-2-yl}benzoic acid] gave an EC50 greater than 20000 nM and a Maximum % activity of 2.5%.

In the case of `COc1ccc2c(c1)O[C@@H](c1ccc(C(=O)O)cc1)C[C@H]2NC(=O)C1(c2ccc(Cl)cc2)CCCC1` [Example 98, 4-[(2R,4R)-4-{[1-(4-chlorophenyl)cyclopentane-1-carbonyl]amino}-7-methoxy-3,4-dihydro-2H-1-benzopyran-2-yl]benzoic acid], the EC50 was greater than 20000 nM and the Maximum % activity is reported as 13.0%.

In the case of `COc1ccc2c(c1)O[C@@H](c1ccc(C(=O)O)cc1)C[C@H]2NC(=O)C(C)(C)Oc1ccc2c(c1)OCO2` [Example 99, 4-[(2R,4R)-4-{2-[(2H-1,3-benzodioxol-5-yl)oxy]-2-methylpropanamido}-7-methoxy-3,4-dihydro-2H-1-benzopyran-2-yl]benzoic acid], the EC50 was greater than 20000 nM and the Maximum % activity amounted to 15.9%.

Regarding `COc1ccc2c(c1)CC[C@@]2(C)C(=O)N[C@@H]1C[C@H](c2ccc(C(=O)O)cc2)Oc2cc(OC)ccc21` [Example 100, 4-[(2R,4R)-7-methoxy-4-{[(1R)-5-methoxy-1-methyl-2,3-dihydro-1H-indene-1-carbonyl]amino}-3,4-dihydro-2H-1-benzopyran-2-yl]benzoic acid], the 50% effective concentration (EC50) turned out to be 480 nM and the Maximum % activity is 55.3%.

`COc1ccc2c(c1)O[C@@H](c1ccc(C(=O)O)cc1)C[C@H]2NC(=O)C1(c2cccc(Cl)c2)CC1` [Example 101, 4-[(2R,4R)-4-{[1-(3-chlorophenyl)cyclopropane-1-carbonyl]amino}-7-methoxy-3,4-dihydro-2H-1-benzopyran-2-yl]benzoic acid] displayed an EC50 of 660 nM and a Maximum % activity of 46.0%.

`COc1ccc2c(c1)O[C@@H](c1ccc(C(=O)O)cc1)C[C@H]2NC(=O)C1(c2ccccc2)CCC1` [Example 102, 4-{(2R,4R)-7-methoxy-4-[(1-phenylcyclobutane-1-carbonyl)amino]-3,4-dihydro-2H-1-benzopyran-2-yl}benzoic acid] gave an EC50 greater than 20000 nM and a Maximum % activity of 18.1%.

`COc1ccc2c(c1)O[C@@H](c1ccc(C(=O)O)cc1)C[C@H]2NC(=O)C1(c2ccccc2OC)CC1` [Example 103, 4-[(2R,4R)-7-methoxy-4-{[1-(2-methoxyphenyl)cyclopropane-1-carbonyl]amino}-3,4-dihydro-2H-1-benzopyran-2-yl]benzoic acid] gave an EC50 of 4010 nM and a Maximum % activity of 29.0%.

`COc1ccc2c(c1)O[C@@H](c1ccc(C(=O)O)cc1)C[C@H]2NC(=O)C1(c2ccc(Br)cc2)CCC1` [Example 104, 4-[(2R,4R)-4-{[1-(4-bromophenyl)cyclobutane-1-carbonyl]amino}-7-methoxy-3,4-dihydro-2H-1-benzopyran-2-yl]benzoic acid] had an EC50 of 1560 nM and a Maximum % activity of 71.0%.

In the case of `COc1ccc2c(c1)O[C@@H](c1ccc(C(=O)O)cc1)C[C@H]2NC(=O)C1(c2ccccc2F)CC1` [Example 106, 4-[(2R,4R)-4-{[1-(2-fluorophenyl)cyclopropane-1-carbonyl]amino}-7-methoxy-3,4-dihydro-2H-1-benzopyran-2-yl]benzoic acid], the EC50 is 1290 nM and the Maximum % activity was determined as 46.0%.

The compound `COc1ccc2c(c1)O[C@@H](c1ccc(C(=O)O)cc1)C[C@H]2NC(=O)C(C)(C)Oc1ccc(C#N)cc1` [Example 107, 4-{(2R,4R)-4-[2-(4-cyanophenoxy)-2-methylpropanamido]-7-methoxy-3,4-dihydro-2H-1-benzopyran-2-yl}benzoic acid] gave an EC50 of 1320 nM and a Maximum % activity of 22.4%.

The EC50 is the concentration needed to bring the measured effect to its halfway point. A lower EC50 goes with greater potency.
